Assay [1] concerns the target KRas^G13D (Homo sapiens, UniProt P01116, G13D). As to the kind of experiment: biochemical.
Method: (§1) The ability of a compound to bind to KRas was measured using a TR-FRET displacement assay. […] After a 60-minute incubation at room temperature, the reaction was measured using a BMG LABTECH CLARIO star Plus via TR-FRET. […] The POC values were fit to a 4-parameter IC50 equation and the IC50 value reported.
In assay [2] the target is T1, KRas^G12S (Homo sapiens, UniProt P01116, G12S).
T1 construct: […]; biotin (biotinylated); purchased Accelegan Inc
As to the kind of experiment: KRas binding assay (TR-FRET displacement of Cy5 labelled tracer). (In general: TR-FRET usually uses a lanthanide donor and a delayed reading to cut background.)
Method: as §1

In assay [3] the target is T2, KRas^WT (Homo sapiens, UniProt P01116).
T2 construct: […]; biotin (biotinylated); purchased Accelegan Inc
Described as above.
Method: as §1

Assay [4] deals with KRas^G12C (Homo sapiens, UniProt P01116, G12C). Nature of the assay: biochemical.
Method: as §1
Assay [5] concerns the target T3, KRas^G12A (Homo sapiens, UniProt P01116, G12A).
T3 construct: […]; biotin (biotinylated); purchased Accelegan Inc
Nature of the assay: KRas binding assay (TR-FRET displacement of Cy5 labelled tracer).
Method: as §1

The target in assay [6] is T4, KRas^G12R (Homo sapiens, UniProt P01116, G12R).
T4 construct: […]; biotin (biotinylated); purchased Accelegan Inc
The description is as above.
Method: as §1

Assay [7] deals with KRas^Q61H (Homo sapiens, UniProt P01116, Q61H). As to the kind of experiment: biochemical.
Method: as §1
Assay [8] addresses T5, KRas^G12V (Homo sapiens, UniProt P01116, G12V).
T5 construct: […]; biotin (biotinylated); purchased Accelegan Inc
Nature of the assay: KRas binding assay (TR-FRET displacement of Cy5 labelled tracer).
Method: as §1

Assay [9] addresses T6, KRas^G12D (Homo sapiens, UniProt P01116, G12D).
T6 construct: […]; biotin (biotinylated); purchased Accelegan Inc
The assay is described as above.
Method: as §1

Data on 13 compounds can be found in US12421253B2 (Mirati Therapeutics, Inc., priority 2020, dated 2025).

T6 sequence (P01116 1-169 isoform P01116-2 G12D): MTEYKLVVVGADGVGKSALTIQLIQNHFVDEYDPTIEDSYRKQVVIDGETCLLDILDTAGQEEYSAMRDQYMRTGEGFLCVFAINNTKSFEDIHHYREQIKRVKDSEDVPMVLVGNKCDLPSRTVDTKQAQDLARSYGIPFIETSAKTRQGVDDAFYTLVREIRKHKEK
Chain of KRas^Q61H (P01116 1-169 isoform P01116-2 Q61H): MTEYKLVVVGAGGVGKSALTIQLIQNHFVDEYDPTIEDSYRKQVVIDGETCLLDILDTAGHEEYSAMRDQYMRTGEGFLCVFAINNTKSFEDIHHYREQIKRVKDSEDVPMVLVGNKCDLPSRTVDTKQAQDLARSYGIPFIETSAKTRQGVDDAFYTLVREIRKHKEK
Chain of KRas^G13D (P01116 1-169 isoform P01116-2 G13D): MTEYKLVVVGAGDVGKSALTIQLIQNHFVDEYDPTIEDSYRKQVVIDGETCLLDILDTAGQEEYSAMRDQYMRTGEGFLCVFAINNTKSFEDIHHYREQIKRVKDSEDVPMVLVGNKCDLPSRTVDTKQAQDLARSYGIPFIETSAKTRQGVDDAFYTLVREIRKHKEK
T4 sequence (P01116 1-169 isoform P01116-2 G12R): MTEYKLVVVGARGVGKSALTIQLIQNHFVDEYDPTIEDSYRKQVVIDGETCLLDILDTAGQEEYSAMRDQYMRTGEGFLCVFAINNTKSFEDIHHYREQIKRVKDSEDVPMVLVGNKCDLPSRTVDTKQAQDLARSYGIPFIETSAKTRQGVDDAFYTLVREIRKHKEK
T2 sequence (P01116 1-169 isoform P01116-2): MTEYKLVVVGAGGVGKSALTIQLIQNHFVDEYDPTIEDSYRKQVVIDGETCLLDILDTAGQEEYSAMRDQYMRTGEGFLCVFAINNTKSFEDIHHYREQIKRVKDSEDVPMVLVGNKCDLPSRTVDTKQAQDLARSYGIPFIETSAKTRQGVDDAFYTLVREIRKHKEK
T5 sequence (P01116 1-169 isoform P01116-2 G12V): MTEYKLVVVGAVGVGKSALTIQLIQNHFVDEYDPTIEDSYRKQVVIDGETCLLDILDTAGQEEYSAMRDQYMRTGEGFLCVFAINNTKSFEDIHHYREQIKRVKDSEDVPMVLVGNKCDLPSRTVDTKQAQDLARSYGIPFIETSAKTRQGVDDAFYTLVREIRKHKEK
T3 sequence (P01116 1-169 isoform P01116-2 G12A): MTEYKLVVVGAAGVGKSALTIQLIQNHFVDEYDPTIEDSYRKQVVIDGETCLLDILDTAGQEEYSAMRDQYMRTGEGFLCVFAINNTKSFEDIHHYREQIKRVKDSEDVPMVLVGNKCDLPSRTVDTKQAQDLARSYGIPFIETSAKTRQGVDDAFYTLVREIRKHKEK
T1 sequence (P01116 1-169 isoform P01116-2 G12S): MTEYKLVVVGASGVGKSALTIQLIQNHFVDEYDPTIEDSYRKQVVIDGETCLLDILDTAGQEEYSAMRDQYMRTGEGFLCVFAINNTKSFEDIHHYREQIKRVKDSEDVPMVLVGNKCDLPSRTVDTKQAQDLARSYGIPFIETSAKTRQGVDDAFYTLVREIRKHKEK
Chain of KRas^G12C (P01116 1-169 isoform P01116-2 G12C): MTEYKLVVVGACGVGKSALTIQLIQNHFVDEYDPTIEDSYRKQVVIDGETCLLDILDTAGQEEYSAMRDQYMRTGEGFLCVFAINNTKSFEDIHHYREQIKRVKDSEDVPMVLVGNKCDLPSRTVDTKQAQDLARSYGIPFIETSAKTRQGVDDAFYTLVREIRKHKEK

By IC50 is commonly meant the midpoint of a concentration-inhibition curve. Low readings indicate greater potency in that assay, high ones weaker potency in that assay. For the compound `O=C1NC(=O)C2CN(c3nc(OCC45CCCN4CCC5)nc4c3CCN(c3cccc5cccc(F)c35)C4)CC12` (stereo not drawn) [Example 81, 5-(7-(8-fluoronaphthalen-1-yl)-2-((hexahydro-1H-pyrrolizin-7a-yl)methoxy)-5,6,7,8-tetrahydropyrido[3,4-d]pyrimidin-4-yl)tetrahydropyrrolo[3,4-c]pyrrole-1,3(2H,3aH)-dione], the concentration for half-maximal inhibition (IC50) amounted to 3720 nM in assay [1]; 1160 nM in assay [2]; 3610 nM in assay [3]; 3560 nM in assay [4]; 4050 nM in [5]; 4020 nM in assay [6]. Moreover, the results for the IC50 in [7], in [8] and in [9] were 5330 nM, 3400 nM and 5400 nM, respectively.
Take `CCc1cccc2cccc(N3CCc4c(nc(OCC56CCCN5CCC6)nc4N4CCCC(n5cccn5)C4)C3)c12` (stereo not drawn) [Example 82, 4-(3-(1H-pyrazol-1-yl)piperidin-1-yl)-7-(8-ethylnaphthalen-1-yl)-2-((tetrahydro-1H-pyrrolizin-7a(5H)-yl)methoxy)-5,6,7,8-tetrahydropyrido[3,4-d]pyrimidine]: the 50% inhibitory concentration (IC50) in assay [1] came out at 552 nM; in assay [2] it was 696 nM; in [3], 712 nM; in assay [4], 475 nM; in [5] it was 628 nM; in assay [6], 291 nM. The figures for the IC50 in assay [7], in assay [8] and in assay [9] were 606 nM, 958 nM and 1120 nM, respectively.
For `CCc1cccc2cccc(N3CCc4c(nc(OCC56CCCN5CCC6)nc4N4CCCC(N5CC(C)CS5(=O)=O)C4)C3)c12` (stereo not drawn) [Example 83, 2-(1-(7-(8-ethylnaphthalen-1-yl)-2-((tetrahydro-1H-pyrrolizin-7a(5H)-yl)methoxy)-5,6,7,8-tetrahydropyrido[3,4-d]pyrimidin-4-yl)piperidin-3-yl)-4-methylisothiazolidine 1,1-dioxide], the concentration for half-maximal inhibition (IC50) came out at 139 nM in assay [1]; 240 nM in assay [2]; 83 nM in [3]; 190 nM in assay [4]; 206 nM in assay [5]; 311 nM in assay [6]. Moreover, the concentration for half-maximal inhibition (IC50) turned out to be 189 nM in assay [7], 427 nM in assay [8] and 929 nM in assay [9].
On to `CCc1cccc2cccc(N3CCc4c(nc(OCC56CCCN5CCC6)nc4N4CCCC(c5nc(N)n(C)n5)C4)C3)c12` (stereo not drawn) [Example 84, 3-(1-(7-(8-ethylnaphthalen-1-yl)-2-((tetrahydro-1H-pyrrolizin-7a(5H)-yl)methoxy)-5,6,7,8-tetrahydropyrido[3,4-d]pyrimidin-4-yl)piperidin-3-yl)-1-methyl-1H-1,2,4-triazol-5-amine], for which the IC50 in assay [1] turned out to be 696 nM; in assay [2], 351 nM; in [3], 838 nM; in [4], 161 nM; in assay [5] it was 215 nM; in assay [6] it was 104 nM. Besides, the half-inhibitory concentration (IC50) in assay [7] is 734 nM; in [8], 291 nM; in assay [9], 2110 nM.
Consider `CCc1cccc2cccc(N3CCc4c(nc(OCC56CCCN5CCC6)nc4N4CCCC(N5CCCS5(=O)=O)C4)C3)c12` (stereo not drawn) [Example 85, 2-(1-(7-(8-ethylnaphthalen-1-yl)-2-((tetrahydro-1H-pyrrolizin-7a(5H)-yl)methoxy)-5,6,7,8-tetrahydropyrido[3,4-d]pyrimidin-4-yl)piperidin-3-yl)isothiazolidine 1,1-dioxide], for which the concentration for half-maximal inhibition (IC50) in assay [1] turned out to be 186 nM; in assay [2], 263 nM; in assay [3], 140 nM; in assay [4], 274 nM; in [5] it was 223 nM; in assay [6] it was 399 nM. The concentration for half-maximal inhibition (IC50) was found to be 213 nM in [7], 491 nM in assay [8] and 1030 nM in assay [9].
For `CCc1cccc2cccc(N3CCc4c(nc(OCC56CCCN5CCC6)nc4N4CCC(CO)C(O)C4)C3)c12` (stereo not drawn) [Example 86, 1-(7-(8-ethylnaphthalen-1-yl)-2-((tetrahydro-1H-pyrrolizin-7a(5H)-yl)methoxy)-5,6,7,8-tetrahydropyrido[3,4-d]pyrimidin-4-yl)-4-(hydroxymethyl)piperidin-3-ol], the half-maximal inhibitory concentration (IC50) in [1] was found to be 151 nM; in assay [2], 304 nM; in assay [3], 158 nM; in [4], 576 nM; in [5], 225 nM; in assay [6], 465 nM. The IC50 in assay [7] was determined as 194 nM; in assay [8], 498 nM; in assay [9], 1320 nM.
Regarding `CCc1cccc2cccc(N3CCc4c(nc(OCC56CCCN5CCC6)nc4N4CCCC(c5cc(=O)[nH][nH]5)C4)C3)c12` (stereo not drawn) [Example 87, 5-(1-(7-(8-ethylnaphthalen-1-yl)-2-((tetrahydro-1H-pyrrolizin-7a(5H)-yl)methoxy)-5,6,7,8-tetrahydropyrido[3,4-d]pyrimidin-4-yl)piperidin-3-yl)-1,2-dihydro-3H-pyrazol-3-one], the IC50 in assay [1] came out at 1470 nM; in assay [2], 1150 nM; in assay [3], 1010 nM; in assay [4], 470 nM; in assay [5], 1140 nM; in assay [6], 165 nM. Further, the values for the 50% inhibitory concentration (IC50) in assay [7], in [8] and in assay [9] were 844 nM, 1870 nM and 4880 nM, respectively.
Turning to `CCc1cccc2cccc(N3CCc4c(nc(OCC56CCCN5CCC6)nc4N4CCOCC(n5cncn5)C4)C3)c12` (stereo not drawn) [Example 88, 4-(7-(8-ethylnaphthalen-1-yl)-2-((tetrahydro-1H-pyrrolizin-7a(5H)-yl)methoxy)-5,6,7,8-tetrahydropyrido[3,4-d]pyrimidin-4-yl)-6-(1H-1,2,4-triazol-1-yl)-1,4-oxazepane], the 50% inhibitory concentration (IC50) in assay [1] was found to be 176 nM; in [2] it was 505 nM; in assay [3] it was 215 nM; in [4], 482 nM; in assay [5], 475 nM; in assay [6], 470 nM. For the same compound, the concentration for half-maximal inhibition (IC50) in [7] came to 228 nM; in assay [8], 403 nM; in [9] it was 1110 nM.
Turning to `CCc1cccc2cccc(N3CCc4c(nc(OCC56CCCN5CCC6)nc4N4CCC(OCC(N)=O)CC4)C3)c12` [Example 89, 2-((1-(7-(8-ethylnaphthalen-1-yl)-2-((tetrahydro-1H-pyrrolizin-7a(5H)-yl)methoxy)-5,6,7,8-tetrahydropyrido[3,4-d]pyrimidin-4-yl)piperidin-4-yl)oxy)acetamide], the half-inhibitory concentration (IC50) is 1130 nM in assay [1]; 721 nM in [2]; 959 nM in assay [3]; 465 nM in assay [4]; 427 nM in [5]; 219 nM in assay [6]. Also, the IC50 in [7] is 929 nM; in [8], 593 nM; in [9], 7110 nM.
`CCc1cccc2cccc(N3CCc4c(nc(OCC56CCCN5CCC6)nc4N4CCCC(NC(=O)N(C)C)C4)C3)c12` (stereo not drawn) [Example 91, 3-(1-(7-(8-ethylnaphthalen-1-yl)-2-((tetrahydro-1H-pyrrolizin-7a(5H)-yl)methoxy)-5,6,7,8-tetrahydropyrido[3,4-d]pyrimidin-4-yl)piperidin-3-yl)-1,1-dimethylurea]: the concentration for half-maximal inhibition (IC50) was 919 nM in assay [1]; 459 nM in assay [2]; 765 nM in assay [3]; 382 nM in [4]; 292 nM in assay [5]; 229 nM in [6]. Besides, the IC50 in [7] was determined as 963 nM; in assay [8], 435 nM; in assay [9] it was 1040 nM.
As for `CCc1cccc2cccc(N3CCc4c(nc(OCC56CCCN5CCC6)nc4N4CCC(O)CC(C)C4)C3)c12` (stereo not drawn) [Example 92, 1-(7-(8-ethylnaphthalen-1-yl)-2-((tetrahydro-1H-pyrrolizin-7a(5H)-yl)methoxy)-5,6,7,8-tetrahydropyrido[3,4-d]pyrimidin-4-yl)-6-methylazepan-4-ol], the IC50 came to 247 nM in assay [1]; 342 nM in assay [2]; 232 nM in assay [3]; 348 nM in [4]; 303 nM in assay [5]; 279 nM in assay [6]. In addition, the IC50 in [7] turned out to be 325 nM; in assay [8] it was 295 nM; in [9] it was 532 nM.
With `CCc1cccc2cccc(N3CCc4c(nc(OCC56CCCN5CCC6)nc4N4CCCC(c5n[nH]c(C)n5)C4)C3)c12` (stereo not drawn) [Example 93, 7-(8-ethylnaphthalen-1-yl)-4-(3-(5-methyl-1H-1,2,4-triazol-3-yl)piperidin-1-yl)-2-((tetrahydro-1H-pyrrolizin-7a(5H)-yl)methoxy)-5,6,7,8-tetrahydropyrido[3,4-d]pyrimidine], the IC50 in assay [1] amounted to 1100 nM; in assay [2], 698 nM; in [3], 678 nM; in assay [4], 256 nM; in [5], 427 nM; in assay [6], 234 nM. The IC50 in assay [7] was 1240 nM; in [8], 701 nM; in assay [9] it was 2620 nM.
Take `CCc1cccc2cccc(N3CCc4c(nc(OCC56CCCN5CCC6)nc4N4CCCC(n5ccc(C)n5)C4)C3)c12` (stereo not drawn) [Example 94, 7-(8-ethylnaphthalen-1-yl)-4-(3-(3-methyl-1H-pyrazol-1-yl)piperidin-1-yl)-2-((tetrahydro-1H-pyrrolizin-7a(5H)-yl)methoxy)-5,6,7,8-tetrahydropyrido[3,4-d]pyrimidine]: the concentration for half-maximal inhibition (IC50) came out at 699 nM in [1]; 883 nM in assay [2]; 860 nM in [3]; 525 nM in assay [4]; 793 nM in assay [5]; 244 nM in assay [6]. Besides, the half-maximal inhibitory concentration (IC50) in assay [7] stood at 757 nM; in assay [8], 1290 nM; in assay [9], 2120 nM.
